Laboratory results from ChEMBL document CHEMBL1135905, “1,8-disubstituted xanthine derivatives: synthesis of potent A2B-selective adenosine receptor antagonists” (J Med Chem, 2002).
pKi: −log10 of the molar value.

Experiments:
Adenosine receptor A1 [1] = target: T1, Adenosine receptor A1 (Rattus norvegicus, UniProt P25099); test: Binding affinity towards rat Adenosine A1 receptor
T1 sequence (P25099 whole entry): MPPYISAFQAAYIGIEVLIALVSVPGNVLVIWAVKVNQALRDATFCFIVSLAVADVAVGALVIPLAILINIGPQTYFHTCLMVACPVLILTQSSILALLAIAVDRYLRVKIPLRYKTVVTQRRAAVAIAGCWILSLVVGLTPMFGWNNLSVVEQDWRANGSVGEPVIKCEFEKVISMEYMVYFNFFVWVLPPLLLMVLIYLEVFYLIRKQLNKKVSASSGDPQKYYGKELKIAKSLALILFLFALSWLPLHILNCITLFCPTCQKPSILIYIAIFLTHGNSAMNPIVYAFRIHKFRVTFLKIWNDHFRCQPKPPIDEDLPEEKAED

Adenosine receptor A2a [2] = target: T2, Adenosine receptor A2a (Rattus norvegicus, UniProt P30543); test: Inhibition of [3H]MSX-2 binding to rat adenosine A2A receptor
T2 sequence (P30543 whole entry): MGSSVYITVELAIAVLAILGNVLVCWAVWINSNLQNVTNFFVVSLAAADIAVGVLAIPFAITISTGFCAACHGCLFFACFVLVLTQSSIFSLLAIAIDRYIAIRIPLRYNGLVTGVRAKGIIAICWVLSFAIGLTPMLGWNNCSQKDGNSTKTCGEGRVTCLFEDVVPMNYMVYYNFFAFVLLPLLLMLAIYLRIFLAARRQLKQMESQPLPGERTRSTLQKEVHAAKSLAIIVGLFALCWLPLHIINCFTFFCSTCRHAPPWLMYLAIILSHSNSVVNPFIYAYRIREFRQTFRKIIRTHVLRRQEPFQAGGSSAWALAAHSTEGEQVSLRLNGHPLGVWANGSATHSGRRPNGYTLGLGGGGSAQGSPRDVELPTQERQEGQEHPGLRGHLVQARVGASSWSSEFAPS

Adenosine receptor A1 [3] = target: T1, Adenosine receptor A1
Description: Inhibition of [3H]CCPA binding to rat adenosine A1 receptor

Adenosine receptor A1 [4] = target: T3, Adenosine receptor A1 (Homo sapiens, UniProt P30542); test: Inhibition of [3H]CCPA binding against human Adenosine A1 receptor
T3 sequence (P30542 whole entry): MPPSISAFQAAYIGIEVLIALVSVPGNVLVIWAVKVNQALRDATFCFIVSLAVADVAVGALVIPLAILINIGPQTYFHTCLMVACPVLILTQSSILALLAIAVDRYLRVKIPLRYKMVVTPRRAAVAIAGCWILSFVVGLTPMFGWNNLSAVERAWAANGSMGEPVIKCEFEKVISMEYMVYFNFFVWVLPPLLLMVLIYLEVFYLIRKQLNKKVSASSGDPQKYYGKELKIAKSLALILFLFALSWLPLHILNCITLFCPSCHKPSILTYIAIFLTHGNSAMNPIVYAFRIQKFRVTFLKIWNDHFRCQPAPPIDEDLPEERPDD

Adenosine receptor A3 = target: T4, Adenosine receptor A3 (Homo sapiens, UniProt P0DMS8)
T4 sequence (P0DMS8 whole entry): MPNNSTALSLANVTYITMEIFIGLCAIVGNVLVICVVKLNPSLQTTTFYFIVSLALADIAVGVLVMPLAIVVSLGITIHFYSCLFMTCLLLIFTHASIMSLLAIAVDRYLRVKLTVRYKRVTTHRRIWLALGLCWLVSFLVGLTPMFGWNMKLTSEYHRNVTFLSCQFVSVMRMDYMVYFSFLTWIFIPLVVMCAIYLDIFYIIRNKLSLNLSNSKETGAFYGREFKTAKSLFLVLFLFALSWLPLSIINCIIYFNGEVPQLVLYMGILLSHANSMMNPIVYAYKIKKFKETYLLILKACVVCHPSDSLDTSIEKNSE
Description: Inhibition of [3H]PSB-11 binding to human Adenosine A3 receptor

Adenosine receptor A2b = target: T5, Adenosine receptor A2b (Homo sapiens, UniProt P29275); test: Inhibition of [3H]ZM-241385 binding to human adenosine A2B receptor
T5 sequence (P29275 whole entry): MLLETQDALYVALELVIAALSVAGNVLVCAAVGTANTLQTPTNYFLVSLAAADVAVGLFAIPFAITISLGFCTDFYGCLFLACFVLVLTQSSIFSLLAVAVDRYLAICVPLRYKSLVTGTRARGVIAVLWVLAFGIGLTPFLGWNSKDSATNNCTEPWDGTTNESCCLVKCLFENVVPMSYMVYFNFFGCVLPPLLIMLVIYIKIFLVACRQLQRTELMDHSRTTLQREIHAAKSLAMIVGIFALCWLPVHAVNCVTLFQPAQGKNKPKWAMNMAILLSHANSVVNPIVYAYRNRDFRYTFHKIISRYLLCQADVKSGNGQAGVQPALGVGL

[5] = target: Adenosine A2 receptor (Homo sapiens) (UniProt P29275+P29274); test: Selectivity ratio of the compound( A2A/A2B); format: protein assay
Adenosine receptor A2a [6] = target: T2, Adenosine receptor A2a
Description: Binding affinity towards rat Adenosine A2A receptor

[7] = target: T6, Adenosine receptors; A2b & A3 (Homo sapiens) (UniProt P29275+P0DMS8); test: Selectivity ratio (A3/A2B).; format: protein assay
[8] = tested on: Adenosine receptors A1 (Rattus norvegicus) & A2B (Homo sapiens); test: Selectivity ratio (A1/A2B)
[9] = target: T7, Adenosine receptor A3 (Homo sapiens) (UniProt P0DMS8); test: Percent inhibition of [3H]PSB-11 binding to human Adenosine A3 receptor at 10 uM
T7 sequence (whole entry): T4 sequence (P0DMS8 whole entry)

[10] = tested on: Adenosine receptors A2A (Rattus norvegicus) & A2B (Homo sapiens); test: Selectivity ratio against adenosine A2A and A2B receptors
[11] = target: Adenosine receptors; A1 & A2b (Homo sapiens) (UniProt P30542+P29275); test: Selectivity ratio against adenosine A1 and A2B receptors; format: protein assay
[12] = target: Adenosine receptor A2a (Rattus norvegicus) (UniProt P30543); test: Percent inhibition of [3H]MSX-2 binding to rat Adenosine A2A receptor; conditions: concentration not given here
Chain of Adenosine receptor A2a (Rattus norvegicus) (P30543 whole entry): as the sequence (P30543 whole entry) above

[13] = target: Adenosine receptor A2a (Homo sapiens) (UniProt P29274); test: Percent inhibition of [3H]-MSX-2 binding against human Adenosine A2A receptor; conditions: concentration not given here
Chain of Adenosine receptor A2a (Homo sapiens) (P29274 whole entry): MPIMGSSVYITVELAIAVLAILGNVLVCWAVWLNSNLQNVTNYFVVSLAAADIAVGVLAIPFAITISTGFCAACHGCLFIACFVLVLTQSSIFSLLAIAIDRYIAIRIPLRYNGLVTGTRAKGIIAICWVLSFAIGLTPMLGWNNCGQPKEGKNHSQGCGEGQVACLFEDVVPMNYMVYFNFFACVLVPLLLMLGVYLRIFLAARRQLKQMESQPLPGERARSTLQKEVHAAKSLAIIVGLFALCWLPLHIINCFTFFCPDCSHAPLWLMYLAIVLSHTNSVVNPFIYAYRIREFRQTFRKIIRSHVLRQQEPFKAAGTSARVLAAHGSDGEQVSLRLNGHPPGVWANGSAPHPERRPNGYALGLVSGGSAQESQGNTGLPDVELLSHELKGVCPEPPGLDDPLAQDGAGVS

[14] = target: T6, Adenosine receptors; A2b & A3 (Homo sapiens); test: Selectivity ratio against adenosine A3 and A2B receptors; format: protein assay

CCCn1c(=O)c2[nH]c(-c3ccc(OCC(=O)NCCN)cc3)nc2n(CCC)c1=O [XANTHINE AMINE CONGENER]
pKi (Adenosine receptor A1 [1]): 8.89

CCCCn1c(=O)[nH]c2nc(-c3ccc(C(=O)O)cc3)[nH]c2c1=O
pKi (Adenosine receptor A2a [2]): 5.42 | pKi (Adenosine receptor A1 [3]): 6.32 | pKi (Adenosine receptor A1 [4]): 5.93 | pKi (Adenosine receptor A3): 5.34 | pKi (Adenosine receptor A2b): 7.62

CCCCn1c(=O)[nH]c2[nH]c(-c3ccc(Br)cc3)nc2c1=O
Ratio [5]: 21 | pKi (Adenosine receptor A2a [6]): 7.24 | pKi (Adenosine receptor A1 [3]): 7.89 | Ratio [7]: > 1000 | Ratio [8]: 5 | inhibition [9]: 45% | pKi (Adenosine receptor A2b): 8.57

CCCn1c(=O)[nH]c2[nH]c(-c3ccc4cc(C(=O)O)ccc4c3)nc2c1=O
Ratio [10]: > 700 | Ratio [11]: 8 | inhibition [12]: 43% | inhibition [13]: 55% | Ratio [14]: 91 | pKi (Adenosine receptor A1 [3]): 6.96 | pKi (Adenosine receptor A3): 5.93 | pKi (Adenosine receptor A2b): 7.89
